Reference: patent US8785489B2, “Heteroaryl substituted indole compounds useful as MMP-13 inhibitors” (Boehringer Ingelheim International GmbH, priority 2008, dated 2014)
pIC50: −log10 of the molar value.

Target: MMP13 (Homo sapiens (Human), UniProt P45452)
Test: EnzoLyte 520 Generic MMP Assay Kit, 5-FAM/QXL 520 FRET peptide substrate
Format: biochemical
Description: The EnzoLyte™ 520 Generic MMP Assay Kit (AnaSpec Inc.) can detect the activity of several MMPs including MMP-1, 2, 3, 7, 8, 9, 13, and 14. This kit uses a 5-FAM/QXL™ 520 fluorescence resonance energy transfer (FRET) peptide as an MMP substrate. In the intact FRET peptide, the fluorescence of 5-FAM is quenched by QXL™ 520. Upon cleavage into two separate fragments by MMPs, the fluorescence of 5-FAM is recovered, and can be monitored at excitation/emission wavelengths=490 nm/520 nm. The assays are performed in a convenient 96-well or 384-well microplate format.

**Q.** With `Cc1noc(-c2cc3cc(-c4cc(C(=O)NCc5ccncc5)nn4C)ccc3[nH]2)n1` as the compound, how does the pIC50 read?
**A.** Its pIC50 is 8.40.

**Q.** How did the pIC50 turn out when `Cc1noc(-c2cc3cc(-c4cc(C(=O)NCc5cccs5)nn4C)ccc3[nH]2)n1` was run?
**A.** The pIC50 was 7.36.

**Q.** `Cc1noc(-c2cc3cc(-c4nc(C(=O)N5CCCCC5)[nH]c4C)ccc3[nH]2)n1` was tested. Which pIC50 did it give?
**A.** Its pIC50 is 7.19.

**Q.** How did the pIC50 turn out when `Cc1noc(-c2cc3cc(-c4nc(C(=O)N5CCCC5)[nH]c4C)ccc3[nH]2)n1` was run?
**A.** Its pIC50 is 6.95.

**Q.** With `Cc1[nH]c(C(=O)NCc2ccncc2)nc1-c1ccc2[nH]c(-c3nc(C4CC4)no3)cc2c1` as the compound, how does the pIC50 read?
**A.** The pIC50 was 8.22.

**Q.** With `Cc1[nH]c(C(=O)NCc2ccncc2)nc1-c1ccc2[nH]c(-c3nc(C(C)C)no3)cc2c1` as the compound, how does the pIC50 read?
**A.** Its pIC50 is 7.74.

**Q.** How did the pIC50 turn out when `Cc1noc(-c2cc3cc(-c4ccnc(C(=O)NCc5ccncc5)c4)ccc3[nH]2)n1` was run?
**A.** The pIC50 was 7.92.

**Q.** How did the pIC50 turn out when `Cc1nc(-c2cc3cc(-c4ccnc(C(=O)NCc5ccncc5)c4)ccc3[nH]2)no1` was run?
**A.** Its pIC50 is 7.42.

**Q.** How did the pIC50 turn out when `Cn1cc(-c2cc3cc(-c4cc(C(=O)NCc5ccc(C(=O)O)cc5)nn4C)ccc3[nH]2)cn1` was run?
**A.** Its pIC50 is 8.82.

**Q.** How did the pIC50 turn out when `Cc1noc(-c2cc3cc(-c4cc(C(=O)NCc5ccc(C(=O)O)cc5)nn4C)ccc3[nH]2)n1` was run?
**A.** The pIC50 was 9.70.

**Q.** With `Cn1nc(C(=O)NCc2ccc(C(=O)O)cc2)cc1-c1ccc2[nH]c(-c3ccncc3)cc2c1` as the compound, how does the pIC50 read?
**A.** Its pIC50 is 9.10.

**Q.** `Cn1nc(C(=O)NCc2ccc(C(=O)O)cc2)cc1-c1ccc2[nH]c(-c3ncccn3)cc2c1` was tested. Which pIC50 did it give?
**A.** Its pIC50 is 8.80.

**Q.** With `Cn1nc(C(=O)NCc2ccc(C(=O)O)cc2)cc1-c1ccc2[nH]c(-c3cncnc3)cc2c1` as the compound, how does the pIC50 read?
**A.** Its pIC50 is 8.30.

**Q.** How did the pIC50 turn out when `Cc1cc(Cn2cc(-c3nc(C(=O)NCc4ccc(C(=O)O)cc4)[nH]c3C)cn2)ccc1F` was run?
**A.** The pIC50 was 7.06.

**Q.** `Cc1cc(Cn2cc(-c3ccnc(C(=O)NCc4ccc(C(=O)O)cc4)c3)cn2)ccc1F` was tested. Which pIC50 did it give?
**A.** Its pIC50 is 6.89.

**Q.** How did the pIC50 turn out when `Cc1noc(-c2cc3cc(-c4ccnc(C(=O)NCc5ccc(C(=O)O)cc5)c4)ccc3[nH]2)n1` was run?
**A.** The pIC50 was 9.70.

**Q.** With `CCOC(=O)c1cc2cc(-c3ccnc(C(=O)NCc4ccc(C(=O)O)cc4)c3)ccc2[nH]1` as the compound, how does the pIC50 read?
**A.** The pIC50 was 9.15.

**Q.** `Cc1cc(-c2cc3cc(-c4cc(C(=O)NCc5ccc(C(=O)O)cc5)nn4C)ccc3[nH]2)cc(F)n1` was tested. Which pIC50 did it give?
**A.** The pIC50 was 7.28.

**Q.** With `Cn1nc(C(=O)NCc2ccc(C(=O)O)cc2)cc1-c1ccc2[nH]c(-c3ccnc(F)c3)cc2c1` as the compound, how does the pIC50 read?
**A.** The pIC50 was 8.70.

**Q.** `Cc1cc(-c2cc3cc(-c4cc(C(=O)NCc5ccc(C(=O)O)cc5)nn4C)ccc3[nH]2)ccc1F` was tested. Which pIC50 did it give?
**A.** The pIC50 was 7.52.

**Q.** `Cn1nc(C(=O)NCc2ccc(C(=O)O)cc2)cc1-c1ccc2[nH]c(C3=NCCO3)cc2c1` was tested. Which pIC50 did it give?
**A.** The pIC50 was 7.37.

**Q.** With `Cn1nc(C(=O)NCc2ccc(C(=O)O)cc2)cc1-c1ccc2[nH]c(-c3ccc(F)nc3)cc2c1` as the compound, how does the pIC50 read?
**A.** Its pIC50 is 7.32.

**Q.** How did the pIC50 turn out when `Cn1nc(C(=O)NCc2ccc(C(=O)O)cc2)cc1-c1ccc2[nH]c(C#N)cc2c1` was run?
**A.** The pIC50 was 7.28.

**Q.** With `Cc1noc(-c2cc3cc(-c4cc(C(=O)NCc5ccc(C(=O)O)cc5)ncc4C)ccc3[nH]2)n1` as the compound, how does the pIC50 read?
**A.** The pIC50 was 9.70.

**Q.** With `Cc1noc(-c2cc3cc(-c4nc(C(=O)NCc5ccc(C(=O)O)cc5)[nH]c4C)ccc3[nH]2)n1` as the compound, how does the pIC50 read?
**A.** Its pIC50 is 9.70.

**Q.** With `Cc1noc(-c2cc3cc(-c4nc(C(=O)NCc5ccc(=O)[nH]c5)[nH]c4C)ccc3[nH]2)n1` as the compound, how does the pIC50 read?
**A.** Its pIC50 is 9.70.

**Q.** `Cc1noc(-c2cc3cc(-c4nc(C(=O)NCc5noc(C)n5)[nH]c4C)ccc3[nH]2)n1` was tested. Which pIC50 did it give?
**A.** The pIC50 was 9.05.

**Q.** How did the pIC50 turn out when `Cc1noc(-c2cc3cc(-c4nc(C(=O)NC5CCOCC5)[nH]c4C)ccc3[nH]2)n1` was run?
**A.** Its pIC50 is 6.97.

**Q.** With `Cc1noc(-c2cc3cc(-c4nc(C(=O)NCc5ccnnc5)[nH]c4C)ccc3[nH]2)n1` as the compound, how does the pIC50 read?
**A.** Its pIC50 is 8.92.

**Q.** How did the pIC50 turn out when `Cc1noc(-c2cc3cc(-c4nc(C(=O)NCc5nnc[nH]5)[nH]c4C)ccc3[nH]2)n1` was run?
**A.** Its pIC50 is 8.22.

**Q.** How did the pIC50 turn out when `Cc1noc(-c2cc3cc(-c4nc(C(=O)NCc5ccccn5)[nH]c4C)ccc3[nH]2)n1` was run?
**A.** The pIC50 was 8.52.

**Q.** With `Cc1noc(-c2cc3cc(-c4nc(C(=O)NCC5CCCCO5)[nH]c4C)ccc3[nH]2)n1` (centres unmarked) as the compound, how does the pIC50 read?
**A.** The pIC50 was 8.30.

**Q.** How did the pIC50 turn out when `Cc1noc(-c2cc3cc(-c4cc(C(=O)NCc5ccncc5)ncc4C)ccc3[nH]2)n1` was run?
**A.** Its pIC50 is 7.85.

**Q.** `Cc1noc(-c2cc3cc(-c4nc(C(=O)NCc5ccc(C(O)C(F)(F)F)cc5)[nH]c4C)ccc3[nH]2)n1` (centres unmarked) was tested. Which pIC50 did it give?
**A.** Its pIC50 is 7.74.

**Q.** How did the pIC50 turn out when `Cc1noc(-c2cc3cc(-c4nc(C(=O)NCCN5CCOCC5)[nH]c4C)ccc3[nH]2)n1` was run?
**A.** The pIC50 was 8.30.

**Q.** `Cc1noc(-c2cc3cc(-c4nc(C(=O)NCc5cccnc5)[nH]c4C)ccc3[nH]2)n1` was tested. Which pIC50 did it give?
**A.** Its pIC50 is 9.22.

**Q.** How did the pIC50 turn out when `Cc1noc(-c2cc3cc(-c4nc(C(=O)NCc5ccncn5)[nH]c4C)ccc3[nH]2)n1` was run?
**A.** The pIC50 was 9.22.

**Q.** How did the pIC50 turn out when `Cc1noc(-c2cc3cc(-c4nc(C(=O)NCc5nnc(C)[nH]5)[nH]c4C)ccc3[nH]2)n1` was run?
**A.** The pIC50 was 7.77.

**Q.** `Cc1noc(-c2cc3cc(-c4nc(C(=O)NC(C)c5cccs5)[nH]c4C)ccc3[nH]2)n1` (centres unmarked) was tested. Which pIC50 did it give?
**A.** Its pIC50 is 7.82.

**Q.** `Cc1noc(-c2cc3cc(-c4nc(C(=O)NCc5cccs5)[nH]c4C)ccc3[nH]2)n1` was tested. Which pIC50 did it give?
**A.** The pIC50 was 8.70.

**Q.** With `Cc1noc(-c2cc3nc(-c4nc(C(=O)NCc5ccncc5)[nH]c4C)ccc3[nH]2)n1` as the compound, how does the pIC50 read?
**A.** The pIC50 was 7.70.

**Q.** `Cc1noc(-c2cc3cc(-c4nc(C(=O)NCC5COCCO5)[nH]c4C)ccc3[nH]2)n1` (centres unmarked) was tested. Which pIC50 did it give?
**A.** The pIC50 was 8.72.

**Q.** `Cc1noc(-c2cc3cc(-c4cc(C(=O)NCc5ccco5)nn4C)ccc3[nH]2)n1` was tested. Which pIC50 did it give?
**A.** The pIC50 was 7.57.

**Q.** `Cc1noc(-c2cc3cc(-c4cc(C(=O)NCc5ccoc5)nn4C)ccc3[nH]2)n1` was tested. Which pIC50 did it give?
**A.** The pIC50 was 7.35.

**Q.** `Cc1noc(-c2cc3cc(-c4cc(C(=O)NCc5ccc(C#N)cc5)nn4C)ccc3[nH]2)n1` was tested. Which pIC50 did it give?
**A.** Its pIC50 is 8.00.

**Q.** How did the pIC50 turn out when `Cc1noc(-c2cc3cc(-c4nc(C(=O)NCc5ccc(C#N)cc5)[nH]c4C)ccc3[nH]2)n1` was run?
**A.** The pIC50 was 8.70.

**Q.** `Cc1noc(-c2cc3cc(-c4cc(C(=O)NCc5ccc(F)cc5)nn4C)ccc3[nH]2)n1` was tested. Which pIC50 did it give?
**A.** Its pIC50 is 7.59.

**Q.** `Cc1noc(-c2cc3cc(-c4nc(C(=O)NCc5ccc(F)cc5)[nH]c4C)ccc3[nH]2)n1` was tested. Which pIC50 did it give?
**A.** Its pIC50 is 8.22.

**Q.** How did the pIC50 turn out when `Cc1noc(-c2cc3cc(-c4nc(C(=O)NCc5nnc6n5CCC6)[nH]c4C)ccc3[nH]2)n1` was run?
**A.** Its pIC50 is 8.40.

**Q.** `Cc1noc(-c2cc3cc(-c4nc(C(=O)NCc5ccnc(N)c5)[nH]c4C)ccc3[nH]2)n1` was tested. Which pIC50 did it give?
**A.** The pIC50 was 8.89.

**Q.** `Cc1noc(-c2cc3cc(-c4nc(C(=O)NCC5(O)CCOCC5)[nH]c4C)ccc3[nH]2)n1` was tested. Which pIC50 did it give?
**A.** Its pIC50 is 8.22.

**Q.** How did the pIC50 turn out when `Cc1noc(-c2cc3cc(-c4nc(C(=O)NCc5ccc(N)nc5)[nH]c4C)ccc3[nH]2)n1` was run?
**A.** The pIC50 was 8.70.

**Q.** `CCNC(=O)c1nc(-c2ccc3[nH]c(-c4nc(C)no4)cc3c2)c(C)[nH]1` was tested. Which pIC50 did it give?
**A.** Its pIC50 is 8.00.

**Q.** `CCOC(=O)c1cc2cc(-c3cc(C(=O)NCc4ccc(CC(=O)O)cc4)nn3C)ccc2[nH]1` was tested. Which pIC50 did it give?
**A.** Its pIC50 is 8.52.

**Q.** How did the pIC50 turn out when `CCOC(=O)c1[nH]c2ccc(-c3nc(C(=O)NCc4ccncc4)[nH]c3C)cc2c1F` was run?
**A.** The pIC50 was 8.15.

**Q.** With `CCOC(=O)c1cc2cc(-c3cc(C(=O)NCc4ccc(=O)[nH]c4)nn3C)ccc2[nH]1` as the compound, how does the pIC50 read?
**A.** Its pIC50 is 6.90.

**Q.** `CCOC(=O)c1cc2cc(-c3cc(C(=O)NCc4ccncc4)nn3C)ccc2[nH]1` was tested. Which pIC50 did it give?
**A.** The pIC50 was 7.01.

**Q.** How did the pIC50 turn out when `CCOC(=O)c1cc2cc(-c3ccnc(C(=O)NCc4ccc(=O)[nH]c4)c3)ccc2[nH]1` was run?
**A.** The pIC50 was 7.46.

**Q.** With `CCOC(=O)c1cc2cc(-c3cc(C(=O)NCc4ccc(CC(=O)OC)cc4)nn3C)ccc2[nH]1` as the compound, how does the pIC50 read?
**A.** The pIC50 was 7.29.

**Q.** How did the pIC50 turn out when `CCOC(=O)c1cc2cc(-c3nc(C(=O)NCc4ccncc4)[nH]c3C)ccc2[nH]1` was run?
**A.** The pIC50 was 8.70.

**Q.** `CCOC(=O)c1cc2cc(-c3nc(C(=O)NCc4ccncc4)[nH]c3C)cnc2[nH]1` was tested. Which pIC50 did it give?
**A.** The pIC50 was 7.31.

**Q.** `CCOC(=O)c1cc2cc(-c3nc(C(=O)NCc4ccncc4)[nH]c3C)ncc2[nH]1` was tested. Which pIC50 did it give?
**A.** Its pIC50 is 8.15.

**Q.** How did the pIC50 turn out when `CCOC(=O)c1cc2nc(-c3nc(C(=O)NCc4ccncc4)[nH]c3C)ccc2[nH]1` was run?
**A.** Its pIC50 is 7.02.

**Q.** With `CCOC(=O)c1cc2cc(-c3cc(C(=O)NCc4ccncc4)ncc3C)ccc2[nH]1` as the compound, how does the pIC50 read?
**A.** Its pIC50 is 6.81.

**Q.** How did the pIC50 turn out when `COC(=O)c1cc(-c2ccc3[nH]c(-c4nc(C)no4)cc3c2)n(C)n1` was run?
**A.** The pIC50 was 6.72.
